Patent US9718804B2, “GSK-3 inhibitors” (BRISTOL-MYERS SQUIBB COMPANY, priority 2013, dated 2017)
Like-named read-outs stand apart in the source and are kept apart here.

Key:
[1] = target: GSK3β (Homo sapiens, UniProt P49841); assay: GSK3β kinase assay (Caliper LabChip, fluoresceinated peptide substrate); format: biochemical
Method: (§1) The kinase assay was performed in V-bottom 384-well plates. […] The reaction was incubated at room temperature for 20 hours and terminated by adding 45 μl of 35 mM EDTA to each sample. The reaction mixture was analyzed on the Caliper LabChip3000 (Caliper, Hopkinton, Mass.) by electrophoretic separation of the unphosphorylated substrate and phosphorylated product. […] Compounds were dissolved at 10 mM in dimethylsulfoxide (DMSO) and evaluated at eleven concentrations. IC50 values were derived by non-linear regression analysis.

[2] = target: GSK3α (Homo sapiens, UniProt P49840); assay: GSK3α kinase assay (Caliper LabChip, fluoresceinated peptide substrate); format: biochemical
Method: as §1

[3] = test system: pTau; assay: pTau assay (no method described); format: cell-based
[4] = first value of the cell, 250 pM enzyme, 20 uM ATP, 20 hours at room temperature, read-out: GSK3β/α (nM): GSK3β IC50

Chain of GSK3α (P49840 whole entry, species assumed): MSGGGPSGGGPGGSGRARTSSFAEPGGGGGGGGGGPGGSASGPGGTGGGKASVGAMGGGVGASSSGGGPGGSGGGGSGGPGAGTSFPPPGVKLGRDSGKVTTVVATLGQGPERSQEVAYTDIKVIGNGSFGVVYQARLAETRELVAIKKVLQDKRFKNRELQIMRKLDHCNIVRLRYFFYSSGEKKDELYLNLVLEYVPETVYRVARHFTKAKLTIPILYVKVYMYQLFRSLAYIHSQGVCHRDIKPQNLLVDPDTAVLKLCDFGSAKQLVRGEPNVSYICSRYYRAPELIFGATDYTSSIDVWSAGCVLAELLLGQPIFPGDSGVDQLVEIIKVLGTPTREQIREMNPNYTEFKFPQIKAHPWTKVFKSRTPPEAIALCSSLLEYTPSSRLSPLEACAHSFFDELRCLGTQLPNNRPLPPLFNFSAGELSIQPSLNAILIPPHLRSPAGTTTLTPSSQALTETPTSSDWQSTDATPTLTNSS
Chain of GSK3β (P49841 whole entry, species assumed): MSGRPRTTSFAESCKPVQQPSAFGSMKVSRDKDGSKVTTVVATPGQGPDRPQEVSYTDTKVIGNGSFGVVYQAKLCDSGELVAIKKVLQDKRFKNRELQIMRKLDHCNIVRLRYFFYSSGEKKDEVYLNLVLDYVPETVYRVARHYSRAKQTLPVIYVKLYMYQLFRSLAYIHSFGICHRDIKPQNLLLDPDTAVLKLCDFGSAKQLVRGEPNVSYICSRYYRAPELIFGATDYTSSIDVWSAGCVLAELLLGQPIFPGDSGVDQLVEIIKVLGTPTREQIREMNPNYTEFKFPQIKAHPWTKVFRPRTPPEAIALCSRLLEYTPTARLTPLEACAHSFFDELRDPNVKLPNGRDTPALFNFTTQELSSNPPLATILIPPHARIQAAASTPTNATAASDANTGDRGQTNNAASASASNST

Compound | IC50 [1, 4] | IC50 [2] | IC50 [3] | IC50 [1] | IC50 ([2]; second value of the cell, 250 pM enzyme, 20 uM ATP, 20 hours at room temperature, read-out: GSK3β/α (nM): GSK3α IC50)
O=C(Nc1cncnc1Br)c1ccnc(Nc2ccc(C(F)(F)F)cn2)c1 [Example 192, N-(4-Bromopyrimidin-5-yl)-2-((5-(trifluoromethyl)pyridin-2-yl)amino)isonicotinamide] | 23 nM | 9.3 nM | 520 nM |  | 
CC1(c2cc(Cl)ncc2NC(=O)c2ccnc(Nc3ccc(C(F)(F)F)cn3)c2)OCCO1 [Example 76, N-(6-Chloro-4-(2-methyl-1,3-dioxolan-2-yl)pyridin-3-yl)-2-((5-(trifluoromethyl)pyridin-2-yl)amino)isonicotinamide] | 0.32 nM | 0.2 nM | 13 nM |  | 
O=C(Nc1cnccc1-c1ccccc1)c1ccnc(Nc2cccc(F)n2)c1 [Example 7, 2-((6-Fluoropyridin-2-yl)amino)-N-(4-phenylpyridin-3-yl)isonicotinamide] | 8.5 nM | 5.9 nM | 249 nM |  | 
CC1(C)CN(c2ccncc2NC(=O)c2ccnc(Nc3ccc(C#N)cn3)c2)CCO1 [Example 28, 2-((5-Cyanopyridin-2-yl)amino)-N-(4-(2,2-dimethylmorpholino)pyridin-3-yl)isonicotinamide] | 0.55 nM | 0.37 nM | 16 nM |  | 
O=C(Nc1cnccc1-c1ccccc1)c1ccnc(Nc2cc3ccccc3cn2)c1 [Example 115, 2-(Isoquinolin-3-ylamino)-N-(4-phenylpyridin-3-yl)isonicotinamide] | 0.97 nM | 0.65 nM | 297 nM |  | 
N#Cc1cccc(Nc2cc(C(=O)Nc3cncc(-c4ccc(C#N)c(F)c4)c3)ccn2)n1 [Example 165, N-(5-(4-Cyano-3-fluorophenyl)pyridin-3-yl)-2-((6-cyanopyridin-2-yl)amino)isonicotinamide] | 1.2 nM | 0.4 nM | 84 nM |  | 
CC(C)(C#N)c1ccc(Nc2cc(C(=O)Nc3cncc(-c4ccccc4F)c3)ccn2)nc1 [Example 164, 2-((5-(2-Cyanopropan-2-yl)pyridin-2-yl)amino)-N-(5-(2-fluorophenyl)pyridin-3-yl)isonicotinamide] | 4.9 nM | 2.4 nM | 3100 nM |  | 
Cc1ccc(Nc2cc(C(=O)Nc3cncc(-c4ccccc4F)c3)ccn2)nc1 [Example 133, N-(5-(2-Fluorophenyl)pyridin-3-yl)-2-((5-methylpyridin-2-yl)amino)isonicotinamide] | 7.3 nM | 3.4 nM | 1400 nM |  | 
CC1(c2cnncc2NC(=O)c2ccnc(Nc3ccc(C(F)(F)F)cn3)c2)OCCO1 [Example 200, N-(5-(2-Methyl-1,3-dioxolan-2-yl)pyridazin-4-yl)-2-((5-(trifluoromethyl)pyridin-2-yl)amino)isonicotinamide] | 0.62 nM | 0.39 nM | 3.2 nM |  | 
O=C(Nc1cnccc1C1(O)CCCCC1)c1ccnc(Nc2ccc(C(F)(F)F)cn2)c1 [Example 38, N-(4-(1-Hydroxycyclohexyl)pyridin-3-yl)-2-((5-(trifluoromethyl)pyridin-2-yl)amino)isonicotinamide] | 1.1 nM | 0.71 nM | 8.8 nM |  | 
O=C(Nc1cnc(F)cc1-c1ccccc1)c1ccnc(Nc2ccc(C(F)(F)F)cn2)c1 [Example 67, N-(6-Fluoro-4-phenylpyridin-3-yl)-2-((5-(trifluoromethyl)pyridin-2-yl)amino)isonicotinamide] | 7 nM | 4 nM | 524 nM |  | 
CCC1(c2cc(Cl)ncc2NC(=O)c2ccnc(Nc3ccccn3)c2)OCCO1 [Example 108, N-(6-Chloro-4-(2-ethyl-1,3-dioxolan-2-yl)pyridin-3-yl)-2-(pyridin-2-ylamino)isonicotinamide] |  |  | 30 nM | 1.4 nM | 0.95 nM
CC1(c2cc(OCCO)ncc2NC(=O)c2ccnc(Nc3ccc(C(F)(F)F)cn3)c2)OCCO1 [Example 84, N-(6-(2-Hydroxyethoxy)-4-(2-methyl-1,3-dioxolan-2-yl)pyridin-3-yl)-2-((5-(trifluoromethyl)pyridin-2-yl)amino)isonicotinamide] | 9.2 nM | 5 nM | 350 nM |  | 
Cn1ncc(NC(=O)c2ccnc(Nc3ccc(C(F)(F)F)cn3)c2)c1C1(C)OCCO1 [Example 207, N-(1-Methyl-5-(2-methyl-1,3-dioxolan-2-yl)-1H-pyrazol-4-yl)-2-((5-(trifluoromethyl)pyridin-2-yl)amino)isonicotinamide] | 0.09 nM | 0.1 nM | 1.4 nM |  | 
O=C(Nc1ccnnc1)c1ccnc(Nc2ccc(C(F)(F)F)cn2)c1 [Example 196, N-(Pyridazin-4-yl)-2-((5-(trifluoromethyl)pyridin-2-yl)amino)isonicotinamide] | 80 nM | 25 nM | 7400 nM |  | 
O=C(Nc1cnccc1C1=CCCCC1)c1ccnc(Nc2ccc(C(F)(F)F)cn2)c1 [Example 36, N-(4-(Cyclohex-1-en-1-yl)pyridin-3-yl)-2-((5-(trifluoromethyl)pyridin-2-yl)amino)isonicotinamide] | 2.9 nM | 1.4 nM | 130 nM |  | 
CCOc1ccncc1NC(=O)c1ccnc(Nc2ccc(C#N)cn2)c1 [Example 16, N-(4-Ethoxypyridin-3-yl)-2-((5-cyanopyridin-2-yl)amino)isonicotinamide] | 1.1 nM | 0.62 nM | 12 nM |  | 
CC1(COc2cncc(NC(=O)c3ccnc(Nc4cccc(C(F)(F)F)n4)c3)c2)CC1 [Example 125, N-(5-((1-Methylcyclopropyl)methoxy)pyridin-3-yl)-2-((6-(trifluoromethyl)pyridin-2-yl)amino)isonicotinamide] |  | 3.8 nM | 2200 nM | 12 nM | 
CN(C)S(=O)(=O)c1ccc(Nc2cc(C(=O)Nc3cncc(-c4ccccc4F)c3)ccn2)nc1 [Example 157, 2-((5-(N,N-Dimethylsulfamoyl)pyridin-2-yl)amino)-N-(5-(2-fluorophenyl)pyridin-3-yl)isonicotinamide] | 3.6 nM | 1.6 nM | 750 nM |  | 
O=C(Nc1cnccc1-c1ccc(F)cc1)c1ccnc(Nc2ccc(C(F)(F)F)cn2)c1 [Example 50, N-(4-(4-Fluorophenyl)pyridin-3-yl)-2-((5-(trifluoromethyl)pyridin-2-yl)amino)isonicotinamide] | 2.1 nM | 0.86 nM | 54 nM |  | 
O=C(Nc1cnccc1OCCN1CCOCC1)c1ccnc(Nc2ccc(C(F)(F)F)cn2)c1 [Example 47, N-(4-(2-Morpholinoethoxy)pyridin-3-yl)-2-((5-(trifluoromethyl)pyridin-2-yl)amino)isonicotinamide] | 18 nM | 5.6 nM | 420 nM |  | 
O=C(Nc1cnncc1C1(CCCCl)OCCO1)c1ccnc(Nc2ccc(C(F)(F)F)cn2)c1 [Example 201, N-(5-(2-(3-Chloropropyl)-1,3-dioxolan-2-yl)pyridazin-4-yl)-2-((5-(trifluoromethyl)pyridin-2-yl)amino)isonicotinamide] | 0.19 nM | 0.4 nM | 28 nM |  | 
CC(C)(C)C(O)c1cc(Cl)ncc1NC(=O)c1ccnc(Nc2ccc(C(F)(F)F)cn2)c1 (stereo not shown) [Example 104, N-(6-Chloro-4-(1-hydroxy-2,2-dimethylpropyl)pyridin-3-yl)-2-((5-(trifluoromethyl)pyridin-2-yl)amino)isonicotinamide] | 18 nM | 9.9 nM | 280 nM |  | 
CC(C)C(O)(c1cc(Cl)ncc1NC(=O)c1ccnc(Nc2ccc(C(F)(F)F)cn2)c1)C1CC1 (stereo not shown) [Example 102, N-(6-Chloro-4-(1-cyclopropyl-1-hydroxy-2-methylpropyl)pyridin-3-yl)-2-((5-(trifluoromethyl)pyridin-2-yl)amino)isonicotinamide] | 43 nM | 30 nM | 1200 nM |  | 
O=C(Nc1cncc(-c2ccccc2F)c1)c1ccnc(Nc2ccc3cnccc3n2)c1 [Example 153, 2-((1,6-Naphthyridin-2-yl)amino)-N-(5-(2-fluorophenyl)pyridin-3-yl)isonicotinamide] | 1.5 nM | 0.45 nM | 200 nM |  | 
O=C(Nc1cnccc1Sc1ccccc1)c1ccnc(Nc2ccc(C(F)(F)F)cn2)c1 [Example 172, N-(4-(Phenylthio)pyridin-3-yl)-2-((5-(trifluoromethyl)pyridin-2-yl)amino)isonicotinamide] | 5.6 nM | 1.1 nM | 240 nM |  | 
COc1ccc(Nc2cc(C(=O)Nc3cncc(-c4ccccc4F)c3)ccn2)nc1 [Example 141, N-(5-(2-Fluorophenyl)pyridin-3-yl)-2-((5-methoxylpyridin-2-yl)amino)isonicotinamide] | 3.5 nM | 1.8 nM | 680 nM |  | 
O=C(Nc1cnc(Cl)cc1-c1ccccc1)c1ccnc(Nc2ccc(C(F)(F)F)cn2)c1 [Example 66, N-(6-Chloro-4-phenylpyridin-3-yl)-2-((5-(trifluoromethyl)pyridin-2-yl)amino)isonicotinamide] | 61 nM | 29 nM | 5850 nM |  | 
C=CCOc1ccc(-c2cnncc2NC(=O)c2ccnc(Nc3ccc(C(F)(F)F)cn3)c2)cc1 [Example 199, N-(5-(4-(Allyloxy)phenyl)pyridazin-4-yl)-2-((5-(trifluoromethyl)pyridin-2-yl)amino)isonicotinamide] | 8.7 nM |  | 470 nM |  | 
COC(=O)c1cccc(Nc2cc(C(=O)Nc3cncc(-c4ccccc4F)c3)ccn2)n1 [Example 149, Methyl 6-((4-((5-(2-fluorophenyl)pyridin-3-yl)carbamoyl)pyridin-2-yl)amino)picolinate] | 2.7 nM |  | 1700 nM |  | 
